Results published in BindingDB's records for patent US11168088 (2021).
Blank lines part the entries; values can stand above or below the compound they belong to.

Key:
[1] = target: Cyclin-dependent kinase 2 (Homo sapiens, UniProt P24941)
[2] = target: Cyclin-dependent kinase 6/G1/S-specific cyclin-D1 (Homo sapiens, UniProt Q00534)
Chain of Cyclin-dependent kinase 6/G1/S-specific cyclin-D1 (P24385 whole entry): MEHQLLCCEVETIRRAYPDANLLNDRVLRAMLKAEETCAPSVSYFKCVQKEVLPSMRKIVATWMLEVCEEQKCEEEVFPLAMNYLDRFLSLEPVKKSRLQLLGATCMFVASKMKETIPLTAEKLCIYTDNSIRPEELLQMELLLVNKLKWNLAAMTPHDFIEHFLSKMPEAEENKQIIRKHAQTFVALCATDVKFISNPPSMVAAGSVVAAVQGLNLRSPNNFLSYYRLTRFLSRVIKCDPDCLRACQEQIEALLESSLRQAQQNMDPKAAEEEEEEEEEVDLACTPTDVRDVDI
Chain of Cyclin-dependent kinase 6/G1/S-specific cyclin-D1 (Q00534 whole entry): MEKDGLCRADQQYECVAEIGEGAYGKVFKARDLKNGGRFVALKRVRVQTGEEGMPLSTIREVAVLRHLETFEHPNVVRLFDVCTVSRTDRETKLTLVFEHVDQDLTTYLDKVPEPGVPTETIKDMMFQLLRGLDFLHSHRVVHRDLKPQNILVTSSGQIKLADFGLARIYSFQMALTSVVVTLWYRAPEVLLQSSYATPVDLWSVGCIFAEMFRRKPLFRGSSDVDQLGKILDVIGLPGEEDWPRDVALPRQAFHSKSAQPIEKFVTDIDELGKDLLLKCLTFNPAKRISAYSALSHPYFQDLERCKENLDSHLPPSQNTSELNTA

Compound: CCN1CCN(c2ccc(Nc3ncc4c(n3)-c3c(cnn3C(C)C)CC4)nc2)CC1 [US11168088, Compound P-12]
IC50 [1]: 7.98 µM

Compound: CC(C)c1nn(C)c2c1-c1nc(Nc3ccc(N4CCNCC4)cn3)ncc1C2 [US11168088, Compound P-16]
IC50 [2]: 0.053 µM

Compound: CC(C)n1ncc2c1-c1nc(Nc3ccc(N4CCNCC4)cn3)ncc1CC2 [US11168088, Compound P-25]
IC50 [1]: 8.52 µM

Now from value to compound:

IC50 [1]: 0.896 µM
Compound: CCN1CCN(Cc2ccc(Nc3ncc4c(n3)-c3c(nn(CC)c3C(C)C)CC4)nc2)CC1 [US11168088, Compound P-2]

IC50 [1]: 0.023 µM
Compound: Cc1c2c(nn1C)CCc1cnc(Nc3ccc(CN4CCN(C)CC4)cn3)nc1-2 [US11168088, Compound D1]

IC50 [1]: 3 µM
Compound: CCc1nc2c(n1C(C)C)-c1nc(Nc3ccc(CN4CCN(CC)CC4)cn3)ncc1C2 [US11168088, Compound P-5]
